Species: Rattus norvegicus
Experiment: DrugMatrix - Regimen: Daily Repeat
Assay type: toxicity, organism-based, Sprague-Dawley
Parameters: regimen Daily Repeat, gender Male, age 6-8 weeks
Settings: in vivo, po, route oral GAVAGE, vehicle .5 % CMC; for ALANINE AMINOTRANSFERASE / ALBUMIN / ALKALINE PHOSPHATASE / ASPARTATE AMINOTRANSFERASE / BLOOD UREA NITROGEN / CHLORIDE / CHOLESTEROL / CREATINE PHOSPHOKINASE / CREATININE / GLUCOSE / LACTATE DEHYDROGENASE / LIPASE / PHOSPHORUS / POTASSIUM / SODIUM / TOTAL BILIRUBIN / TOTAL PROTEIN / URIC ACID: tissue Plasma
[1] = 0.0007 mg/kg, 2184 h, tissue Blood, dose level Low, time 91 day
[2] = 0.0007 mg/kg, 2184 h, dose level Low, time 91 day
[3] = 0.0007 mg/kg, […], tissue Blood, dose level Low, time 28 day
[4] = 0.0007 mg/kg, […], dose level Low, time 28 day
[5] = 0.001 mg/kg, 72 h, tissue Blood, dose level M1, time 3 day
[6] = 0.001 mg/kg, 72 h, dose level M1, time 3 day
[7] = 0.001 mg/kg, 120 h, tissue Blood, dose level M1, time 5 day
[8] = 0.001 mg/kg, 120 h, dose level M1, time 5 day
[9] = 0.02 mg/kg, 72 h, tissue Blood, dose level High, time 3 day
[10] = 0.02 mg/kg, 72 h, dose level High, time 3 day
[11] = 0.02 mg/kg, 120 h, tissue Blood, dose level High, time 5 day
[12] = 0.02 mg/kg, 120 h, dose level High, time 5 day

Clc1cc2c(cc1Cl)Oc1cc(Cl)c(Cl)cc1O2 [2,3,7,8-TETRACHLORODIBENZO-P-DIOXIN]
EOSINOPHIL [1]: 1.12%
ERYTHROCYTE COUNT [1]: 9.38 x10E6/uL
HEMATOCRIT [1]: 50.34%
HEMOGLOBIN [1]: 16.79 G/DL
LEUKOCYTE COUNT [1]: 13.03 x10E3/uL
LYMPHOCYTE [1]: 77.67%
MEAN CORPUSCULAR HEMOGLOBIN [1]: 17.96 pg
MEAN CORPUSCULAR HEMOGLOBIN CONCENTRATION [1]: 33.34 G/DL
MEAN CORPUSCULAR VOLUME [1]: 53.81 fL
MONOCYTE [1]: 2.14%
NEUTROPHIL [1]: 16.55%
PLATELET COUNT [1]: 1320.7 x10E3/uL
ALANINE AMINOTRANSFERASE [2]: 26.9 u/L
ALBUMIN [2]: 3.75 G/DL
ALKALINE PHOSPHATASE [2]: 85.3 u/L
ASPARTATE AMINOTRANSFERASE [2]: 64.6 u/L
BLOOD UREA NITROGEN [2]: 14.9 mg/dL
CHLORIDE [2]: 103.1 MEQ/L
CHOLESTEROL [2]: 55.9 mg/dL
CREATINE PHOSPHOKINASE [2]: 76.1 u/L
CREATININE [2]: 0.51 mg/dL
GLUCOSE [2]: 150.6 mg/dL
LACTATE DEHYDROGENASE [2]: 36.1 u/L
LIPASE [2]: 15.1 u/L
PHOSPHORUS [2]: 7.88 mg/dL
POTASSIUM [2]: 6.11 MEQ/L
SODIUM [2]: 151 MEQ/L
TOTAL BILIRUBIN [2]: 0.2 mg/dL
TOTAL PROTEIN [2]: 7.13 G/DL
URIC ACID [2]: 0.79 mg/dL
ABSOLUTE BASOPHIL [3]: 72 cells/µL
ABSOLUTE EOSINOPHIL [3]: 54 cells/µL
ABSOLUTE LYMPHOCYTE [3]: 9720 cells/µL
ABSOLUTE MONOCYTE [3]: 220 cells/µL
ABSOLUTE SEGMENTED NEUTROPHIL [3]: 1340 cells/µL
BASOPHIL [3]: 0.62%
EOSINOPHIL [3]: 0.5%
ERYTHROCYTE COUNT [3]: 8.2 x10E6/uL
HEMATOCRIT [3]: 46.2%
HEMOGLOBIN [3]: 15.3 G/DL
LEUKOCYTE COUNT [3]: 11.47 x10E3/uL
LYMPHOCYTE [3]: 84.6%
MEAN CORPUSCULAR HEMOGLOBIN [3]: 18.64 pg
MEAN CORPUSCULAR HEMOGLOBIN CONCENTRATION [3]: 33.1 G/DL
MEAN CORPUSCULAR VOLUME [3]: 56.34 fL
MONOCYTE [3]: 1.94%
NEUTROPHIL [3]: 11.78%
PLATELET COUNT [3]: 1311.4 x10E3/uL
ALANINE AMINOTRANSFERASE [4]: 24.8 u/L
ALBUMIN [4]: 3.58 G/DL
ALKALINE PHOSPHATASE [4]: 148 u/L
ASPARTATE AMINOTRANSFERASE [4]: 65.4 u/L
BLOOD UREA NITROGEN [4]: 10.6 mg/dL
CHLORIDE [4]: 104 MEQ/L
CHOLESTEROL [4]: 54.8 mg/dL
CREATINE PHOSPHOKINASE [4]: 83.2 u/L
CREATININE [4]: 0.44 mg/dL
GLUCOSE [4]: 147.6 mg/dL
LACTATE DEHYDROGENASE [4]: 39.8 u/L
LIPASE [4]: 39.2 u/L
PHOSPHORUS [4]: 9.54 mg/dL
POTASSIUM [4]: 5.96 MEQ/L
SODIUM [4]: 151.6 MEQ/L
TOTAL BILIRUBIN [4]: 0.2 mg/dL
TOTAL PROTEIN [4]: 6.34 G/DL
URIC ACID [4]: 0.22 mg/dL
BASOPHIL [5]: 0.47%
EOSINOPHIL [5]: 0.5%
ERYTHROCYTE COUNT [5]: 7.09 x10E6/uL
HEMATOCRIT [5]: 44.53%
HEMOGLOBIN [5]: 14.13 G/DL
LEUKOCYTE COUNT [5]: 11.43 x10E3/uL
LYMPHOCYTE [5]: 82.93%
MEAN CORPUSCULAR HEMOGLOBIN [5]: 20 pg
MEAN CORPUSCULAR HEMOGLOBIN CONCENTRATION [5]: 31.8 G/DL
MEAN CORPUSCULAR VOLUME [5]: 62.87 fL
MONOCYTE [5]: 2.37%
NEUTROPHIL [5]: 12.8%
PLATELET COUNT [5]: 1540.67 x10E3/uL
ALANINE AMINOTRANSFERASE [6]: 38.33 u/L
ALBUMIN [6]: 3.6 G/DL
ALKALINE PHOSPHATASE [6]: 343.33 u/L
ASPARTATE AMINOTRANSFERASE [6]: 60 u/L
BLOOD UREA NITROGEN [6]: 12 mg/dL
CHLORIDE [6]: 103 MEQ/L
CHOLESTEROL [6]: 88.33 mg/dL
CREATINE PHOSPHOKINASE [6]: 181.33 u/L
CREATININE [6]: 0.4 mg/dL
GLUCOSE [6]: 183.67 mg/dL
PHOSPHORUS [6]: 13.1 mg/dL
POTASSIUM [6]: 6.53 MEQ/L
SODIUM [6]: 148.33 MEQ/L
TOTAL BILIRUBIN [6]: 0.33 mg/dL
TOTAL PROTEIN [6]: 5.93 G/DL
BASOPHIL [7]: 0.47%
EOSINOPHIL [7]: 0.23%
ERYTHROCYTE COUNT [7]: 7.01 x10E6/uL
HEMATOCRIT [7]: 45.3%
HEMOGLOBIN [7]: 14.33 G/DL
LEUKOCYTE COUNT [7]: 13.09 x10E3/uL
LYMPHOCYTE [7]: 85.1%
MEAN CORPUSCULAR HEMOGLOBIN [7]: 20.47 pg
MEAN CORPUSCULAR HEMOGLOBIN CONCENTRATION [7]: 31.6 G/DL
MEAN CORPUSCULAR VOLUME [7]: 64.6 fL
MONOCYTE [7]: 2.03%
NEUTROPHIL [7]: 11.33%
PLATELET COUNT [7]: 977.33 x10E3/uL
ALANINE AMINOTRANSFERASE [8]: 39.33 u/L
ALBUMIN [8]: 3.63 G/DL
ALKALINE PHOSPHATASE [8]: 300 u/L
ASPARTATE AMINOTRANSFERASE [8]: 62.33 u/L
BLOOD UREA NITROGEN [8]: 12.33 mg/dL
CHLORIDE [8]: 101.67 MEQ/L
CHOLESTEROL [8]: 84.33 mg/dL
CREATINE PHOSPHOKINASE [8]: 173.33 u/L
CREATININE [8]: 0.43 mg/dL
GLUCOSE [8]: 173.33 mg/dL
PHOSPHORUS [8]: 12.97 mg/dL
POTASSIUM [8]: 6.93 MEQ/L
SODIUM [8]: 149.33 MEQ/L
TOTAL BILIRUBIN [8]: 0.5 mg/dL
TOTAL PROTEIN [8]: 6.07 G/DL
BASOPHIL [9]: 0.37%
EOSINOPHIL [9]: 0.47%
ERYTHROCYTE COUNT [9]: 6.77 x10E6/uL
HEMATOCRIT [9]: 41.33%
HEMOGLOBIN [9]: 12.93 G/DL
LEUKOCYTE COUNT [9]: 11.64 x10E3/uL
LYMPHOCYTE [9]: 80.13%
MEAN CORPUSCULAR HEMOGLOBIN [9]: 19.13 pg
MEAN CORPUSCULAR HEMOGLOBIN CONCENTRATION [9]: 31.33 G/DL
MEAN CORPUSCULAR VOLUME [9]: 61.07 fL
MONOCYTE [9]: 2.43%
NEUTROPHIL [9]: 15.43%
PLATELET COUNT [9]: 1395 x10E3/uL
ALANINE AMINOTRANSFERASE [10]: 38.67 u/L
ALBUMIN [10]: 3.43 G/DL
ALKALINE PHOSPHATASE [10]: 312.67 u/L
ASPARTATE AMINOTRANSFERASE [10]: 58.67 u/L
BLOOD UREA NITROGEN [10]: 10.67 mg/dL
CHLORIDE [10]: 103.33 MEQ/L
CHOLESTEROL [10]: 75 mg/dL
CREATINE PHOSPHOKINASE [10]: 168.33 u/L
CREATININE [10]: 0.3 mg/dL
GLUCOSE [10]: 187.33 mg/dL
PHOSPHORUS [10]: 12.63 mg/dL
POTASSIUM [10]: 7.03 MEQ/L
SODIUM [10]: 147 MEQ/L
TOTAL BILIRUBIN [10]: 0.27 mg/dL
TOTAL PROTEIN [10]: 5.57 G/DL
BASOPHIL [11]: 0.5%
EOSINOPHIL [11]: 0.27%
ERYTHROCYTE COUNT [11]: 7.05 x10E6/uL
HEMATOCRIT [11]: 43.57%
HEMOGLOBIN [11]: 13.87 G/DL
LEUKOCYTE COUNT [11]: 16.09 x10E3/uL
LYMPHOCYTE [11]: 87.33%
MEAN CORPUSCULAR HEMOGLOBIN [11]: 19.67 pg
MEAN CORPUSCULAR HEMOGLOBIN CONCENTRATION [11]: 31.8 G/DL
MEAN CORPUSCULAR VOLUME [11]: 61.9 fL
MONOCYTE [11]: 1.77%
NEUTROPHIL [11]: 8.93%
PLATELET COUNT [11]: 1151.33 x10E3/uL
ALANINE AMINOTRANSFERASE [12]: 46 u/L
ALBUMIN [12]: 3.5 G/DL
ALKALINE PHOSPHATASE [12]: 413.67 u/L
ASPARTATE AMINOTRANSFERASE [12]: 68 u/L
BLOOD UREA NITROGEN [12]: 12 mg/dL
CHLORIDE [12]: 102.33 MEQ/L
CHOLESTEROL [12]: 85.67 mg/dL
CREATINE PHOSPHOKINASE [12]: 209.67 u/L
CREATININE [12]: 0.4 mg/dL
GLUCOSE [12]: 184.33 mg/dL
PHOSPHORUS [12]: 12.77 mg/dL
POTASSIUM [12]: 6.53 MEQ/L
SODIUM [12]: 148.67 MEQ/L
TOTAL BILIRUBIN [12]: 0.4 mg/dL
TOTAL PROTEIN [12]: 5.8 G/DL
